Results published in patent US7517884B2 (Kalypsys Inc., priority 1998, dated 2009).
pEC50: −log10 of the molar value.

Tests used:
Format in all cases: cell-based, murine and human
Details in all cases: GAL4-PPAR LBD chimera
PPAR-delta = biological target: T1, PPAR-delta (UniProt Q03181); assay: PPAR-delta transactivation assay (GAL4 chimera, luciferase reporter) in CV-1 cells
T1 sequence (Q03181 1-441): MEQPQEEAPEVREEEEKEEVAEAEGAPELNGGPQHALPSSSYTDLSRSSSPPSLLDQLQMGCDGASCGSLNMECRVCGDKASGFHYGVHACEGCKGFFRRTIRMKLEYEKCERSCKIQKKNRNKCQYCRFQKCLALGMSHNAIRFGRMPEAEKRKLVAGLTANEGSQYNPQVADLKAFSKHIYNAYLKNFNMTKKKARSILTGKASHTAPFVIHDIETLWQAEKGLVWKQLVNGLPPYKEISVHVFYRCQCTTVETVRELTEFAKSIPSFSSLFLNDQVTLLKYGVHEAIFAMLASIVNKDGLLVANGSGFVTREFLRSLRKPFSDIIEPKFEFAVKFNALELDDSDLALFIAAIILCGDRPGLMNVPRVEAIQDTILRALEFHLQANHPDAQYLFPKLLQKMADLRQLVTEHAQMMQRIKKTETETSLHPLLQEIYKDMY
In short: (§1)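 CV-1 cells transiently transfected with murine or human PPAR-alpha, -gamma or -delta ligand-binding domain fused to GAL4 DNA-binding domain plus a GAL4-site luciferase reporter. After replating in phenol-red-free DME with 5% delipidated calf serum, cells were exposed to compound 20-24 h; luciferase read-out gave EC50.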

PPAR-gamma = biological target: T2, PPAR-gamma (UniProt P37231); assay: PPAR-gamma transactivation assay (GAL4 chimera, luciferase reporter) in CV-1 cells
T2 sequence (P37231 1-505): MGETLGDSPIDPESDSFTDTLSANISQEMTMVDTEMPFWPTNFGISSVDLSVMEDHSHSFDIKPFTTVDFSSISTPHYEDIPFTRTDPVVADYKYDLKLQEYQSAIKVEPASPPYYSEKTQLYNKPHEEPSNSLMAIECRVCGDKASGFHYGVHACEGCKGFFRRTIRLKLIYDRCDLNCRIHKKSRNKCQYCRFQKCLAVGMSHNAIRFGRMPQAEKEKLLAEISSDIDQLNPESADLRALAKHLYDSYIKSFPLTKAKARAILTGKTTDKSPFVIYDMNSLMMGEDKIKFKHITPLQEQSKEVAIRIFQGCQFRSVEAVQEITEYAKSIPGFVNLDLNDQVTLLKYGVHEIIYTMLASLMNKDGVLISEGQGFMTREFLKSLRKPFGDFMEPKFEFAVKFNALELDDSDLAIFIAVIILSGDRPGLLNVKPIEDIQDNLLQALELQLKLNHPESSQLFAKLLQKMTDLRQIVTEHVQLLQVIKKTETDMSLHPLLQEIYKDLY
In short: as §1

PPAR-alpha = biological target: T3, PPAR-alpha (UniProt Q07869); assay: PPAR-alpha transactivation assay (GAL4 chimera, luciferase reporter) in CV-1 cells
T3 sequence (Q07869 1-468): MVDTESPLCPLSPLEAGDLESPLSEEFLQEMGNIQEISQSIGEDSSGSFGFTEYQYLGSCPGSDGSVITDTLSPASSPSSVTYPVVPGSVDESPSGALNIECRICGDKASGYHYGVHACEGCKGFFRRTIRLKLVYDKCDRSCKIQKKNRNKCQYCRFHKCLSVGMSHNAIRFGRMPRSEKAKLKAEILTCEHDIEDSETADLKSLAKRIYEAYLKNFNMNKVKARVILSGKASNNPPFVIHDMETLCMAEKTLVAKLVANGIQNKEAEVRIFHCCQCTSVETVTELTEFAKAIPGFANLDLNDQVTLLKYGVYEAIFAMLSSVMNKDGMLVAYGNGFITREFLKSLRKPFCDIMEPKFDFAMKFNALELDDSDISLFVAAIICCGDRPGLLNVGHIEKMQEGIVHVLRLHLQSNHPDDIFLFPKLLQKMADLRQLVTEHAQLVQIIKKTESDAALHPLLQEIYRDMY
In short: as §1

| Compound | pEC50 (PPAR-delta) | pEC50 (PPAR-gamma) | pEC50 (PPAR-alpha) |
| --- | --- | --- | --- |
| C[C@H]1CN(S(=O)(=O)c2ccc3c(c2)C(C(=O)O)CC3)CCN1c1ccc(C(F)(F)F)c(F)c1 (stereo partly drawn) [Example 54, 6-[4-(3-Fluoro-4-trifluoromethyl-phenyl)-3-(S)-Methyl-piperazine-1-sulfonyl]-indan-1-carboxylic acid] | > 5.30 | > 5.30 | > 5.30 |
| C[C@H]1CN(S(=O)(=O)c2ccc3c(c2)C(C(=O)O)CC3)CCN1c1ccc(C(F)(F)F)cn1 (stereo partly drawn) [Example 55] | > 5.30 | > 5.30 | > 5.30 |
| CCC1CN(c2ccc(C(F)(F)F)c(Cl)c2)CCN1S(=O)(=O)c1ccc2c(c1)C(C(=O)O)CC2 (stereo not drawn) [Example 56, 6-[4-(3-chloro-4-trifluoromethyl-phenyl)-2-ethyl-piperazine-1-sulfonyl]-indan-1carboxylic acid] | > 5.30 | > 5.30 | > 5.30 |
| CCC1CN(c2ccc(OC(F)(F)F)cc2)CCN1S(=O)(=O)c1ccc2c(c1)C(C(=O)O)CC2 (stereo not drawn) [Example 57, 6-[2-ethyl-4-(4-trifluoromethoxy-phenyl)-piperazine-1-sulfonyl]-indan-1-carboxylic acid] | > 5.30 | > 5.30 | > 5.30 |
| CCC1CN(c2ccc(Cl)c(Cl)c2)CCN1S(=O)(=O)c1ccc2c(c1)C(C(=O)O)CC2 (stereo not drawn) [Example 58, 6-[4-(3,4-Dichloro-phenyl)-2-ethyl-piperazine-1-sulfonyl]-indan-1-carboxylic acid] | > 5.30 | 4.00 to 5.30 | > 5.30 |

Other lines, results leading:

| pEC50 (PPAR-delta) | pEC50 (PPAR-gamma) | pEC50 (PPAR-alpha) | Compound |
| --- | --- | --- | --- |
| > 5.30 | > 5.30 | > 5.30 | O=C(O)Cc1csc2ccc(S(=O)(=O)N3CCN(c4ccc(C(F)(F)F)cc4F)CC3)cc12 [Example 47, {5-[4-(2-fluoro-4-trifluoromethyl-phenyl)-piperazine-1-sulfonyl]-benzo[b]thiophen-3-yl}-acetic acid] |
| > 5.30 | > 5.30 | > 5.30 | O=C(O)Cc1csc2ccc(S(=O)(=O)N3CCN(c4ccc(C(F)(F)F)c(F)c4)CC3)cc12 [Example 48, {5-[4-(3-fluoro-4-trifluoromethyl-phenyl)-piperazine-1-sulfonyl]-benzo[b]thiophen-3-yl}-acetic acid] |
| > 5.30 | 4.00 to 5.30 | > 5.30 | C[C@@H]1CN(c2ccc(Cl)c(Cl)c2)C[C@H](C)N1S(=O)(=O)c1ccc2c(c1)C(C(=O)O)CC2 (stereo partly drawn) [Example 49, 6-[4-(3,4-dichloro-phenyl)-2,6-cis-dimethyl-piperazine-1-sulfonyl]-indan-1-carboxylic acid] |
| > 5.30 | 4.00 to 5.30 | 4.00 to 5.30 | C[C@@H]1CN(c2ccc(C(F)(F)F)c(Cl)c2)C[C@H](C)N1S(=O)(=O)c1ccc2c(c1)C(C(=O)O)CC2 (stereo partly drawn) [Example 50, 6-[4-(3-Chloro-4-trifluoromethyl-phenyl)-cis-2,6-dimethyl-piperazine-1-sulfonyl]-indan-1-carboxylic acid] |
| > 5.30 | 4.00 to 5.30 | > 5.30 | C[C@@H]1CN(c2ccc(OC(F)(F)F)cc2)C[C@H](C)N1S(=O)(=O)c1ccc2c(c1)C(C(=O)O)CC2 (stereo partly drawn) [Example 51, 6-[2,6-cis-dimethyl-4-(4-trifluoromethoxy-phenyl)-piperazine-1-sulfonyl]-indan-1-carboxylic acid] |
| > 5.30 | > 5.30 | > 5.30 | C[C@H]1CN(S(=O)(=O)c2ccc3c(c2)C(C(=O)O)CC3)CCN1c1ccc(Cl)c(Cl)c1 (stereo partly drawn) [Example 52, 6-[4-(3,4-dichloro-phenyl)-3-(S)-methyl-piperazine-1-sulfonyl]-indan-1-carboxylic acid] |
| > 5.30 | > 5.30 | > 5.30 | C[C@H]1CN(S(=O)(=O)c2ccc3c(c2)C(C(=O)O)CC3)CCN1c1ccc(OC(F)(F)F)cc1 (stereo partly drawn) [Example 53, 6-[3-(S)-methyl-4-(4-trifluoromethoxy-phenyl)-piperazine-1-sulfonyl]-indan-1-carboxylic acid] |
